Laboratory results from patent publication US20090118271A1, “Preventive or Therapeutic Agents for Pancreatic Cancer, Ovarian Cancer, or Liver Cancer Comprising a Novel Water-Soluble Prodrug” (CHUGAI SEIYAKU KABUSHIKI KAISHA, priority 2005, published 2009).

Experiments:
Format in all cases: in vivo
[1] = tested on: human pancreatic cancer cell line Capan-1; test: Antitumor effect in Capan-1 tumor-bearing nude mice; details: Capan-1 s.c. xenograft, BALB/c nude mice, 66 mg/kg/inj. (47 in terms of free base) intravenously, once a week for three weeks
Procedure: (§1) Antitumor effects were determined for representative examples of the compound groups of the present invention. Antitumor effects were determined using tumor-bearing mice generated by subcutaneous transplantation of human pancreatic cancer cell line Capan-1 obtained from American Type Culture Collection (Virginia, USA) into the right ventral neck of BALB/c nude mice purchased from Japan Charles River.
After a 19-day quarantine period, the purchased nude mice were subjected to subcutaneous transplantation of 10×10^6 Capan-1 cells to their right ventral neck. Mice with a tumor size reaching 260 mm^3 or so were subjected to the experiment.
(§2) The compounds were dissolved in 1 mM citric acid/physiological saline (pH3.1-3.2), and were administered intravenously. The administration was carried out once a week for three weeks, for a total of three administrations. The antitumor effect was determined as tumor growth inhibition (TGI), using the following equation.
(§3) Tumor growth inhibition (TGI) (%)={(1−amount of tumor growth in the group treated with the drug/amount of tumor growth in the control group)×100}

[2] = tested on: human pancreatic cancer cell line BxPC-3; test: Antitumor effect in BxPC-3 tumor-bearing nude mice; details: BxPC-3 s.c. xenograft, BALB/c nude mice, 66 mg/kg/inj. (47 in terms of free base) intravenously, once a week for three weeks
Procedure: as §1, with “BxPC-3” for “Capan-1”
After a seven-day quarantine period, the purchased nude mice were subjected to subcutaneous transplantation of 9×10^6 BxPC-3 cells to their right ventral neck. Mice with a tumor size reaching 400 mm^3 or so were subjected to the experiment.
as §2, §3

[3] = tested on: human liver cancer cell line PLC/PRF/5; test: Antitumor effect in PLC/PRF/5 tumor-bearing nude mice; details: PLC/PRF/5 s.c. xenograft, BALB/c nude mice, 60 mg/kg/inj. (47 in terms of free base) intravenously, once a week for three weeks
Procedure: as §1, with “liver” for “pancreatic”, “PLC/PRF/5” for “Capan-1”, “Human Science” for “American Type Culture Collection (Virginia, USA)”
After a one-week quarantine period, the purchased nude mice were subjected to subcutaneous transplantation of 20×10^6 PLC/PRF/5 cells to their right ventral neck. Mice with a tumor size reaching 200 mm^3 or so were subjected to the experiment.
(§4) The compounds were dissolved in physiological saline, and were administered intravenously. The administration was carried out once a week for three weeks, for a total of three administrations. The antitumor effect was determined as tumor growth inhibition (TGI), using the following equation.
as §3

[4] = tested on: human ovarian cancer cell line SK-OV-3; test: Antitumor effect in SK-OV-3 tumor-bearing nude mice; details: SK-OV-3 s.c. xenograft, BALB/c nude mice, 60 mg/kg/inj. (47 in terms of free base) intravenously, once a week for three weeks
Procedure: Antitumor effects were determined for representative examples of the compound groups of the present invention. Antitumor effects were determined using tumor-bearing mice generated by subcutaneous transplantation of the human ovarian cancer cell line SK-OV-3 obtained from American Type Culture Collection (Virginia, USA) into the right ventral neck of BALB/c nude mice purchased from Japan Charles River.
After a six-day quarantine period, the purchased nude mice were subjected to subcutaneous transplantation of a 2-3 mm square piece of the SK-OV-3 tumor to their right ventral neck. Mice with a tumor size reaching 210 mm^3 or so were subjected to the experiment.
as §4, §3

[5] = tested on: human ovarian cancer cell line PA-1; test: Antitumor effect in PA-1 tumor-bearing nude mice; details: PA-1 s.c. xenograft, BALB/c nude mice, 40 mg/kg/inj. (32 in terms of free base) intravenously, once a week for three weeks
Procedure: Antitumor effects were determined for representative examples of the compound groups of the present invention. Antitumor effects were determined using tumor-bearing mice generated by the subcutaneous transplantation of human ovarian cancer cell line PA-1 obtained from American Type Culture Collection (Virginia, USA) into the right ventral neck of BALB/c nude mice purchased from Japan Charles River.
After a one-week quarantine period, the purchased nude mice were subjected to subcutaneous transplantation of 9.8×10^6 PA-1 cells to their right ventral neck. Mice with a tumor size reaching 200 mm^3 or so were subjected to the experiment.
as §4
Tumor growth inhibition (TGI) (%) {(1−amount of tumor growth in the group treated with the drug/amount of tumor growth in the control group)×100}

[6] = tested on: human pancreatic cancer cell line AsPC-1; test: Antitumor effect in AsPC-1 tumor-bearing nude mice; details: AsPC-1 s.c. xenograft, BALB/c nude mice, 60 mg/kg/inj. (47 in terms of free base) intravenously, once a week for three weeks
Procedure: as §1, with “AsPC-1” for “Capan-1”
After a one-week quarantine period, the purchased nude mice were subjected to subcutaneous transplantation of 4.8×10^6 AsPC-1 cells to their right ventral neck. Mice with a tumor size reaching 200 mm^3 or so were subjected to the experiment.
as §2, §3

## CCCCCN1C=Nc2cccc3nc4c(c1c23)Cn1c-4cc2c(c1=O)COC(=O)[C@@]2(CC)OC(=O)CN(C)C(=O)CN.Cl [Compound 2A, (9S)-9-Ethyl-9-(glycyl-sarcosyloxy)-1-pentyl-1H,12H-pyrano[3″,4″:6′,7′]indolizino[1′,2′:6,5]pyrido[4,3,2-de]quinazoline-10,13(9H,15H)-dione Hydrochloride]
[1]
  TGI (%) on Day 21: 122%
[2]; Day 14
  TGI (%) on Day 14: 55%
[2]; Day 21
  TGI (%) on Day 21: 47%
[3]
  TGI (%) on Day 21: 84%
[4]
  TGI (%) on Day 21: 52%
[5]
  TGI (%) on Day 21: 84%
[6]
  TGI (%) on Day 21: 73%
